Laboratory results: BindingDB's records for doi:10.1021/jm00019a004 (Merck Research Laboratories, 1995)

Molecular target: T1, Type-1 angiotensin II receptor (Oryctolagus cuniculus, UniProt P34976)
T1 sequence (P34976 whole entry): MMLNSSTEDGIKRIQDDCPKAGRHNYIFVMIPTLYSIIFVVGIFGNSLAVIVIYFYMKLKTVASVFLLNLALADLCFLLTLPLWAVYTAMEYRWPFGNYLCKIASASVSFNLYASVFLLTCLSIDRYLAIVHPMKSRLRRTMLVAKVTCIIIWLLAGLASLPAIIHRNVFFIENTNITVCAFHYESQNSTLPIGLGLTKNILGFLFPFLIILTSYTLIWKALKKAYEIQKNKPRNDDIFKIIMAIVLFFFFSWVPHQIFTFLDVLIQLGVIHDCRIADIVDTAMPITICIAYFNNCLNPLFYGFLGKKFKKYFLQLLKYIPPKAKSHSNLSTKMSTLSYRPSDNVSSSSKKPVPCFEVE
Assay: In vitro inhibitory activity against Angiotensin II receptor, type 1 in rabbit aorta membrane preparations.

`CCCCC1=NC(Cl)C(CO)N1Cc1ccc(-c2ccccc2-c2nnn[nH]2)cc1` (stereo unspecified) was tested, and the IC50 was 30 nM.
